From patent US8029979B2, “Method for determining the substrate specificity of an enzyme” (JPT Peptide Technologies GmbH, priority 2001, dated 2011)
Ends that are not written are not given here. BA1 = not defined here

Tests used:
Assay type in all cases: biochemical
protein kinase A [1] = target: T1, protein kinase A (Bos taurus, UniProt P00517); experiment: Phosphorylation of glass-immobilised peptide array by protein kinase A (FIG. 9, Example 33); details: protein kinase A 10 U/mL, ATP/γ32P-ATP, 30 min at 25° C., maleinimido-functionalised glass, PhosphorImager
T1 construct: purchased Sigma P26452 as printed
Procedure: FIG. 9. Precisely 43 serine and/or threonine-containing peptides (potential substrate peptides for kinases) and the corresponding control peptides, each modified at the N-terminus with the dipeptide cysteinyl-β-alanine, were coupled to a maleinimido-functionalised glass surface by a Michael addition (Example 18). In the control peptides the serine and/or threonine residues were replaced by alanine, the sequence remaining otherwise the same. The application was carried out using a NanoPlotter from Gesim. The spot-to-spot distance was 1 mm and 0.8 nL of a peptide solution in 100 mM PBS buffer pH 7.8, containing 20% glycerin, was applied per spot. Here a filled circle represents a serine- or threonine-containing potential substrate peptide and an open circle stands for a control peptide. Three identical subarrays were applied to the glass surface. The numbering of the spots can be seen in FIG. 9C, the sequences of the peptides used are obtained from Example 18. […] After incubation for 30 min at 25° C. the phosphorylation of the corresponding peptides was detected using a FUJIFILM PhosphorImager (Example 39). […]
(§1) After drying the glass surface the quantity of radioactive phosphate incorporated in the glass-surface-bound peptides was determined using a PhosphorImager system (FLA-3000, FUJIFILM). […]

protein kinase C = experiment: Phosphorylation of glass-immobilised peptide array by protein kinase C (FIG. 8, Example 32); details: protein kinase C 10 U/mL, ATP/γ32P-ATP, 30 min at 25° C., maleinimido-functionalised glass, PhosphorImager
Procedure: FIG. 8. Precisely 43 serine and/or threonine-containing peptides (potential substrate peptides for kinases) and the corresponding control peptides, each modified at the N-terminus with the dipeptide cysteinyl-β-alanine, were coupled to a maleinimido-functionalised glass surface by a Michael addition (Example 18). In the control peptides the serine and/or threonine residues were replaced by alanine, the sequence remaining otherwise the same. The application was carried out using a NanoPlotter from Gesim. The spot-to-spot distance was 1 mm and 0.8 nL of a peptide solution in 100 mM PBS buffer pH 7.8, containing 20% glycerin, was applied per spot. Here a filled circle represents a serine- or threonine-containing potential substrate peptide and an open circle stands for a control peptide. Three identical subarrays were applied to the glass surface. The numbering of the spots can be seen in FIG. 8C, the sequences of the peptides used are obtained from Example 18. After application of the peptides, the modified glass surface was first pre-incubated for 10 minutes using 10 ml of 100 μM ATP solution in 50 mM of sodium phosphate buffer pH 7.5. The modified glass surface was then covered with a second glass surface and Protein kinase C (10 U/mL) together with ATP/γ^32P-ATP mixture (100 μM/mL; 100 μCi/mL) was then inserted into the intermediate space formed thereby by means of capillary force. After incubation for 30 min at 25° C. the phosphorylation of the corresponding peptides was detected using a FUJIFILM PhosphorImager (Example 38). The spots having higher signal intensity in all three subarrays were assigned to the corresponding peptides phosphorylated by the protein kinase C. […] It is thus clear that such an assembly is suitable for characterising the substrate specificity of a kinase, such as protein kinase C, for example.
Precisely 43 serine- and/or threonine-containing peptides (potential substrate peptides for kinases) and the corresponding control peptides, each modified at the N-terminus with the dipeptide cysteinyl-β-alanine, were coupled to a maleinimido-functionalised glass surface by a Michael addition (see Example 18). The numbering of the spots can be seen from FIG. 8C and the sequences of the peptides used are obtained from Example 18. After application of the peptide, the modified glass surface was first pre-incubated using 10 mL of 100 μM ATP […] solution in 50 mM sodium phosphate buffer pH 7.5 for […] minutes. The modified glass surface was then covered with a cover glass and protein kinase C (10 U/mL) together with ATP/γ-^32P-ATP mixture (100 μM/mL; 100 μCi/mL) was incorporated in the intermediate space formed by means of capillary force. Incubation was then carried out for 30 min at 25° C. […]
as §1

protein kinase A [2] = target: T1, protein kinase A; experiment: Incubation of modified glass surface (11760 spots) with protein kinase A (FIG. 6, Example 28); details: bromoketone-functionalised glass, thioamide linkage, protein kinase A 10 U/mL, 30 min at 25° C.
Procedure: FIG. 6. A glass surface modified with the peptide Leu-Arg-Arg-Ala-Ser-Leu-Gly-thioamide (see Example 24) amino acid sequence was dissolved in 200 mM sodium phosphate buffer pH 5.5 and at room temperature respectively 1 nL of this solution in an assembly of 70 rows and 168 gaps (total 11760) was applied to the bromoketone-functionalised glass surfaces (Example 10) using a NanoPlotter from Gesim. The spot-to-spot distance was 0.3 mm. The glass surfaces thus treated were then subjected to microwave treatment for 2 min and then incubated for 3 hours at room temperature. Pre-incubation was then carried out for 10 minutes using 10 ml of 100 μM ATP solution in 50 mM of sodium phosphate buffer pH 7.5. […] After incubation for 30 min at 25° C. the phosphorylation of the corresponding peptides was detected using a FUJIFILM PhosphorImager. […] It is furthermore clear that the resolution of the PhosphorImager used here is sufficient to analyse more than 11000 measurement points per biochip. […]
After drying the glass surface the quantity of radioactive phosphate incorporated in the glass-surface-bound peptides was determined using a PhosphorImager system (FLA-3000, FUJIFILM) (see FIG. 6).

recognised and phosphorylated by protein kinase C on the modified glass surface (protein kinase C)	Substance	also measured
–	Arg-Arg-Ile-Ser-Lys-Asp-Asn-Pro-Asp-Tyr-Gln-Gln-Asp-BA1-Cys-NH2 (RRISKDNPDYQQD-{BA1-Cys-NH2}; reading uncertain; also: printed as Arg-Arg-Ile-Ser-Lys-Asp-Asn-Pro-Asp-Tyr-Gln-Gln-Asp-BA1-Cys-NH2) [peptide 83]	recognised and phosphorylated by protein kinase A on the modified glass surface (protein kinase A [1]): not phosphorylated
recognised and phosphorylated	Cys-BA1-Ala-Lys-Arg-Arg-Arg-Leu-Ser-Ser-Leu-Arg-Ala-NH2 ({Cys-BA1}-AKRRRLSSLRA-NH2; reading uncertain; also: printed as Cys-BA1-Ala-Lys-Arg-Arg-Arg-Leu-Ser-Ser-Leu-Arg-Ala-NH2) [compound 3]	–
recognised and phosphorylated	Cys-BA1-Gln-Lys-Arg-Pro-Ser-Gln-Arg-Ser-Lys-Tyr-Leu-NH2 ({Cys-BA1}-QKRPSQRSKYL-NH2; reading uncertain; also: printed as Cys-BA1-Gln-Lys-Arg-Pro-Ser-Gln-Arg-Ser-Lys-Tyr-Leu-NH2) [compound 27]	–
recognised and phosphorylated	Cys-BA1-Lys-Lys-Arg-Phe-Ser-Phe-Lys-Lys-Ser-Phe-Lys-Leu-NH2 ({Cys-BA1}-KKRFSFKKSFKL-NH2; reading uncertain; also: printed as Cys-BA1-Lys-Lys-Arg-Phe-Ser-Phe-Lys-Lys-Ser-Phe-Lys-Leu-NH2) [compound 41]	–
recognised and phosphorylated	Cys-BA1-Pro-Leu-Ser-Arg-Thr-Leu-Ser-Val-Ala-Ala-Lys-Lys-NH2 ({Cys-BA1}-PLSRTLSVAAKK-NH2; reading uncertain; also: printed as Cys-BA1-Pro-Leu-Ser-Arg-Thr-Leu-Ser-Val-Ala-Ala-Lys-Lys-NH2) [compound 23]	–
–	Leu-Arg-Arg-Ala-Ser-Leu-Gly-thioamide (LRRASLG-thioamide)	linking of the immobilised kinase substrate tolerated by protein kinase A (protein kinase A [2]): tolerated by the protein kinase A

Substance	recognised and phosphorylated by protein kinase C on the modified glass surface (protein kinase C)	also measured
Cys-BA1-Pro-Lys-Asp-Pro-Ser-Gln-Arg-Arg-Arg-NH2 ({Cys-BA1}-PKDPSQRRR-NH2; reading uncertain; also: printed as Cys-BA1-Pro-Lys-Asp-Pro-Ser-Gln-Arg-Arg-Arg-NH2) [compound 43]	recognised and phosphorylated	–
